Assay [1] concerns A. pittii Tü21‐041 (clinical isolate). Nature of the assay: microbe, parasite or virus in culture. As to conditions: Acinetobacter pittii; A. pittii Tü21‐041; median (n = 3); read-out: MIC. The class given is cell-based. In short, it runs like this:
(§1)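 Susceptibility is determined by broth microdilution, with inocula of 5 × 10^5 CFU mL^−1 in cation-adjusted MHB II and 20 h incubation at 37 ± 1 °C. For inhibitor combinations, clavulanic acid (2 mg L^−1) or avibactam (4 mg L^−1) is held constant following EUCAST guidance.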

In assay [2] the test system is C. freundii Tü21‐052 (clinical isolate). The assay can be described thus: microbe, parasite or virus in culture. The class given is cell-based. As to conditions: Citrobacter freundii; C. freundii Tü21‐052; median (n = 3); read-out: MIC. In short, it runs like this: as §1
For the next assay, the system named is E. coli ATCC 25 922 (–). The assay can be described thus: microbe, parasite or virus in culture. Particulars: Escherichia coli, 20 h; E. coli ATCC 25922 (no β‐lactamase); combinations: avibactam fixed 4 mg L^−1, clavulanic acid 2 mg L^−1; median (n = 3). The format is cell-based. In short, it runs like this: as §1
In assay [3] the test system is E. coli Tü21‐031 (Oxa244, ESBL). Nature of the assay: microbe, parasite or virus in culture. The class given is cell-based. As to conditions: Escherichia coli, combinations: avibactam fixed 4 mg L^−1, median (n = 3). In short, it runs like this:
as §1

Assay [4] concerns K. pneumoniae 0 6841/Nr.45 (Oxa48). The assay can be described thus: microbe, parasite or virus in culture. As to conditions: Klebsiella pneumoniae, 20 h; K. pneumoniae 06841/Nr.45 (Oxa48); combinations: avibactam fixed 4 mg L^−1, clavulanic acid 2 mg L^−1; median (n = 3). The class given is cell-based. In short, it runs like this:
as §1

In assay [5] the test system is K. pneumoniae BL809453 (KPC). The assay can be described thus: microbe, parasite or virus in culture. The format is cell-based. As to conditions: Klebsiella pneumoniae, 20 h, combinations: avibactam fixed 4 mg L^−1, clavulanic acid 2 mg L^−1, median (n = 3). In short, it runs like this:
as §1

For another assay, the system named is B. subtilis DSM 10. Nature of the assay: Time‐kill assay. The format is cell-based. Particulars: for killing mechanism (time‐kill kinetics, CFU mL^−1): 50 or 100 µM, over 24 h. The method, then: For determination of time‐kill kinetics of the β‐lactam–peptide conjugates and their parent β‐lactams, 14 mL of cation‐adjusted MHB II medium was inoculated with an B. subtilis DSM 10 overnight culture to obtain an OD600 of 0.5, corresponding to ≈10^8 CFU mL^−1. To this exponentially growing culture, 50 or 100 µM of each of the antibiotics was added except for a negative control culture which was treated with only water. The bacterial cultures were incubated at 30 °C and 200 rpm and the OD600 was measured on 1 mL aliquots taken at 0, 10, 30, 45, 60, 90, 120, 240, 360, 480 and 1440 min. Additionally, at the same time points, 15 µL of serial tenfold dilutions of the bacterial suspension were plated onto MHB II agar plates. The agar plates were incubated overnight at 30 °C. The next day, bacterial colonies were counted and the CFU mL^−1 were calculated (limit of detection: 10^1.8 CFU mL^−1). For each antibiotic the assay was performed in triplicate (three biological replicates).

Another assay addresses T1, PBP2A (Bacillus subtilis, UniProt P54488).
T1 construct: endogenous in cells; host or cells: B. subtilis DSM 10, extracted membrane protein fraction
Nature of the assay: Gel‐based PBP affinity assay (Bocillin FL competition). The format is binding. Particulars: B. subtilis membrane fractions, competition with Bocillin FL penicillin; compared with parent β‐lactam. The method, then: (§2) B. subtilis DSM 10 and E. faecalis ATCC 51 299 (equal to DSM 12 956) membrane protein fractions were extracted according to the protocol of Dean et al. with minor modifications.^[ [34] ^] From a growing overnight bacterial culture, 3 L of LB (Luria‐Bertani) medium or TSB (tryptic soy broth) were inoculated with B. subtilis DSM 10 and E. faecalis ATCC 51 299, respectively, to obtain an OD600 = 0.3. The cultures were grown to an OD600 = 0.6–0.8 while shaking at 37 °C and cells were harvested by centrifugation at 4000 g for 30 min at 4 °C. The resulting pellet was washed twice with pre‐cooled PBS and resuspended in 30 mL of ice‐cooled PBS. The suspension was sonicated on ice (10 cycles of 30 s at 50% power for B. subtilis; 12 cycles of 30 s at 80% power for E. faecalis; 2 min intervals between cycles) using an Omni Ruptor 4000 ultrasonic homogenizer (Omni International, Kennesaw, GA, USA). Afterwards, the suspension was centrifuged at 7000 g for 10 min at 4 °C. The clear supernatant was transferred into a 50 mL polypropylene tube and centrifuged in a Beckman Coulter centrifuge equipped with a JA‐20 fixed‐angle rotor (Beckman Coulter, Krefeld, Germany) at 50 000 g for 1 h at 4 °C. The resulting pellet was washed with ice‐cold PBS and centrifuged a second time. The pellet was resuspended in 2 mL PBS and aliquots were stored at −80 °C. The protein content was determined using Bradford reagent (VWR International, Darmstadt, Germany) and Pierce BCA (bicinchoninic acid) protein assay kits (Thermo Fisher Scientific, Waltham, MA, USA) for membrane fractions of B. subtilis and E. faecalis, respectively.
(§3) Each dilution was combined with B. subtilis (30 µg) or E. faecalis (15 µg) extracted membrane fractions. As reference samples, membrane fractions incubated with only PBS were prepared. Reaction mixtures were incubated for 20 min at 37 °C while shaking at 400 rpm. Next, Bocillin FL penicillin (Thermo Fisher Scientific, Waltham, MA, USA) was added to obtain a final concentration of 20 µM in the mixture. Samples were incubated for 30 min at 37 °C while shaking at 400 rpm. To denature the samples, 4× Laemmli sample buffer (Bio‐Rad Laboratories, Feldkirchen, Germany) was added, and the samples incubated for 10 min at 70 °C. Afterwards, the samples were centrifuged for 5 min at 13 000 rpm. Samples were separated by SDS‐PAGE using a 10% Tris‐glycine gel for 100 min at 180 V. The bands were visualized using a Typhoon FLA 9500 imager (GE Healthcare, Chicago, IL, USA) with excitation at 473 nm. The gel images were analyzed using ImageJ software. Brightness and contrast were adjusted to improve the signal‐to‐noise ratio and the background signal was subtracted over the whole image. Next, integrated density values of the gel bands were measured and Bocillin FL penicillin labeling of each PBP in antibiotic‐treated samples were set in proportion to the reference sample. IC50 values were calculated with GraphPad Prism software (version 8.0.1) using inhibitor versus normalized response variable slope and least‐squares fit. […] The mean was calculated using the IC50 values of at least two independent assays for each antibiotic.

A further assay has as its system PBP5. The description is as above. As to conditions: PBPs from vancomycin‐resistant E. faecalis; compared with parent; at concentrations considerably higher than MICs. The class given is binding. The method, then:
as §2, §3

SMILES strings stand for the structures.

T1 sequence (P54488 whole entry): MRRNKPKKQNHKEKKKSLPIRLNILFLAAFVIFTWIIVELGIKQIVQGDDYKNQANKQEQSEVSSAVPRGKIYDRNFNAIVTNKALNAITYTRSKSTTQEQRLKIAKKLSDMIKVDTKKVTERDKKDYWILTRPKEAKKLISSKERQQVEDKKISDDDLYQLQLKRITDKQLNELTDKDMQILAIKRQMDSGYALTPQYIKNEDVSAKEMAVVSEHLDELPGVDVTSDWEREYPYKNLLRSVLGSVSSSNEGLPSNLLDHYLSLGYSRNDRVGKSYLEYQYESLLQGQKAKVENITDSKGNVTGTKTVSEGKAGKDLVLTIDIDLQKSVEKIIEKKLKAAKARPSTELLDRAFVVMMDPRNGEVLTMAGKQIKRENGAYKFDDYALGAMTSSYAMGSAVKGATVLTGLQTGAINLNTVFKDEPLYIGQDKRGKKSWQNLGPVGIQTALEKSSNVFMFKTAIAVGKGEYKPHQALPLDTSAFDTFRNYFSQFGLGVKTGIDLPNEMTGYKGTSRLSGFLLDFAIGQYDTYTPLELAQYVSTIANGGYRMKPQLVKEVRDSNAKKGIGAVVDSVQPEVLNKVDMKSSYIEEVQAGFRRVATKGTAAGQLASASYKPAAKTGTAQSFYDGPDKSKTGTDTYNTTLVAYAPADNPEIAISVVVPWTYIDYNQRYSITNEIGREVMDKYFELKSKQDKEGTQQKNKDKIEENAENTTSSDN

Take `CC(C)(O/N=C(\C(=O)N[C@@H]1C(=O)N2C(C(=O)[O-])=C(C[n+]3ccccc3)CS[C@H]12)c1csc(N)n1)C(=O)O` [CTZ, ceftazidime, reference compound]: the MIC in [1] was 4 µg/mL; in [2], 0.25 µg/mL; in the assay with E. coli ATCC 25 922 (–) it was 0.25 µg/mL; in assay [3], 32 µg/mL; in assay [4], over 64 µg/mL; in assay [5], over 64 µg/mL. The “killing mechanism (time‐kill kinetics, CFU mL^−1)” value in the assay on B. subtilis DSM 10 was “time‐dependent killing mechanism”.

Turning to `CC(C)(O/N=C(\C(=O)N[C@@H]1C(=O)N2C(C(=O)[O-])=C(C[n+]3ccccc3)CS[C@H]12)c1csc(N)n1)C(=O)NCCCCCCN1C(=O)CC(SC[C@H](NC(=O)[C@H](CCCNC(=N)N)NC(=O)[C@H](CCCNC(=N)N)NC(=O)[C@H](CCCNC(=N)N)NC(=O)[C@H](CCCNC(=N)N)NC(=O)[C@H](CCCNC(=N)N)NC(=O)[C@@H](N)CCCNC(=N)N)C(N)=O)C1=O` (some centres unmarked) [CTZ-R6], in the assay on B. subtilis DSM 10 (100 µM, after 6 h), the “drop in CFU (to the detection limit)” value worked out at 6 log units. Also, in the assay with B. subtilis DSM 10, the “killing mechanism (time‐kill kinetics, CFU mL^−1)” value is reported as “concentration‐dependent killing mechanism”. In addition, the “affinity to PBP2A” value at PBP2A was “significantly increased”. Besides, the “binding to PBP5” value with PBP5 is listed as “slightly improved binding”.

These data come from paper PMC11672299, “Conjugation of Polycationic Peptides Extends the Efficacy Spectrum of β‐Lactam Antibiotics” (Advanced Science, 2024).
